Data taken from ChEMBL document CHEMBL4308902, “Synthetic approaches to isocarbacyclin and analogues as potential neuroprotective agents against ischemic stroke” (Bioorg Med Chem, 2019).
The source made the active and inactive calls. No cut-off for these calls is given here.

How the values were obtained:
Cortical neurone [1] = assay: Neuroprotection in mouse embryonic cortical neurons assessed as reduction in oxygen and glucose deprivation-induced cell death; format: functional, cell-based
Cortical neurone [2] = assay: Cytotoxicity against mouse embryonic cortical neurons assessed as reduction in cell viability; format: cell-based
Cortical neurone [3] = assay: Neuroprotection in mouse embryonic cortical neurons assessed as reduction in glucose deprivation-induced cell death; format: functional, cell-based

Row | SMILES | Activity (Cortical neurone [1]) | Activity (Cortical neurone [2]) | Activity (Cortical neurone [3])
1 | CCCCC[C@H](O)/C=C/[C@@H]1[C@H]2CC(CCCCC(=O)O)=C[C@H]2C[C@H]1O | inactive | Toxic | inactive
2 | CCCCCCCCCC/C=C/[C@@H]1[C@H]2CC(CCCCC(=O)O)=C[C@H]2C[C@H]1O | inactive | Toxic | inactive
3 | C=C[C@@H]1[C@H]2CC(CCCCC(=O)O)=C[C@H]2C[C@H]1O | inactive | Toxic | inactive
4 | O=C(O)CCCCC1=C[C@H]2C[C@@H](O)[C@H](/C=C/Cc3ccccc3)[C@H]2C1 | inactive | Toxic | inactive
5 | CCCCCC/C=C/[C@@H]1[C@H]2CC(CCCCC(=O)O)=C[C@H]2C[C@H]1O | inactive | Toxic | inactive
